Reference: PubChem BioAssay (NCI)
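Values below derive from 48-hour exposures of cells grown in 96-well plates, with endpoints linearly interpolated between the two concentrations bracketing the appropriate inhibition level. TGI denotes the concentration required for complete inhibition of growth.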

How the values were obtained:
Assay in all cases: NCI anticancer screen, dose series, 48 h
[1] = tested on: OVCAR-4 ovarian
[2] = tested on: RPMI-8226 leukemia
[3] = tested on: SR leukemia
[4] = tested on: SF-268 CNS
[5] = tested on: OVCAR-8 ovarian
[6] = tested on: COLO 205 colon
[7] = tested on: PC-3 prostate
[8] = tested on: K-562 leukemia
[9] = tested on: MALME-3M melanoma
[10] = tested on: MCF7 breast
[11] = tested on: NCI-H522 lung
[12] = tested on: MDA-MB-231 breast
[13] = tested on: SK-MEL-2 melanoma
[14] = tested on: 786-0 renal
[15] = tested on: BT-549 breast
[16] = tested on: TK-10 renal
[17] = tested on: MDA-MB-435
[18] = tested on: SF-295 CNS
[19] = tested on: U251 CNS
[20] = tested on: NCI-H460 lung
[21] = tested on: CCRF-CEM leukemia
[22] = tested on: M14 melanoma
[23] = tested on: DU-145 prostate
[24] = tested on: HOP-62 NSCLC
[25] = tested on: OVCAR-3 ovarian
[26] = tested on: EKVX NSCLC
[27] = tested on: MOLT-4 leukemia
[28] = tested on: KM12 colon
[29] = tested on: T-47D breast
[30] = tested on: UACC-257 melanoma
[31] = tested on: HOP-92 NSCLC
[32] = tested on: HL-60(TB) leukemia
[33] = tested on: A549 NSCLC
[34] = tested on: HCT-15 colon
[35] = tested on: NCI/ADR-RES ovarian
[36] = tested on: NCI-H23 lung
[37] = tested on: MDA-N
[38] = tested on: SW-620 colon
[39] = tested on: HCC-2998 colon
[40] = tested on: SN12C renal
[41] = tested on: HCT-116 colon
[42] = tested on: ACHN renal
[43] = tested on: SNB-19 CNS
[44] = tested on: NCI-H226 lung
[45] = tested on: OVCAR-5 ovarian
[46] = tested on: LOX IMVI melanoma
[47] = tested on: A498 renal
[48] = tested on: SK-MEL-5 melanoma
[49] = tested on: SF-539 CNS
[50] = tested on: UACC-62 melanoma
[51] = tested on: UO-31 renal
[52] = tested on: SNB-75 CNS
[53] = tested on: HS 578T breast
[54] = tested on: RXF 393 renal
[55] = tested on: IGROV1 ovarian
[56] = tested on: HT29 colon
[57] = tested on: SK-MEL-28 melanoma

CCN(CC)CCC(=O)/C=C/c1ccc(Cl)c(Cl)c1
TGI [1]: > 10 µM
TGI [2]: 0.603 µM
TGI [3]: 9.43 µM
TGI [4]: > 10 µM
TGI [5]: > 10 µM
TGI [6]: > 10 µM
TGI [7]: > 10 µM
TGI [8]: > 10 µM
TGI [9]: > 10 µM
TGI [10]: > 10 µM
TGI [11]: 3.54 µM
TGI [12]: > 10 µM
TGI [13]: > 10 µM
TGI [14]: > 10 µM
TGI [15]: > 10 µM
TGI [16]: 9.98 µM
TGI [17]: > 10 µM
TGI [18]: > 10 µM
TGI [19]: > 10 µM
TGI [20]: > 10 µM
TGI [21]: 7.18 µM
TGI [22]: > 10 µM
TGI [23]: > 10 µM
TGI [24]: > 10 µM
TGI [25]: > 10 µM
TGI [26]: > 10 µM
TGI [27]: > 10 µM
TGI [28]: > 10 µM
TGI [29]: 5.86 µM
TGI [30]: > 10 µM
TGI [31]: > 10 µM
TGI [32]: 1.76 µM
TGI [33]: > 10 µM
TGI [34]: > 10 µM
TGI [35]: 4.66 µM
TGI [36]: > 10 µM
TGI [37]: > 10 µM
TGI [38]: 5.63 µM
TGI [39]: > 10 µM
TGI [40]: 4.24 µM
TGI [41]: 3.74 µM
TGI [42]: > 10 µM
TGI [43]: > 10 µM
TGI [44]: > 10 µM
TGI [45]: > 10 µM

CC1OC(NCCNCCNC2OC(C)C(O)C(O)C2O)C(O)C(O)C1O (centres undefined)
TGI [46]: > 100 µM
TGI [1]: > 100 µM
TGI [2]: > 100 µM
TGI [47]: > 100 µM
TGI [3]: > 100 µM
TGI [48]: > 100 µM
TGI [4]: > 100 µM
TGI [5]: > 100 µM
TGI [49]: > 100 µM
TGI [6]: > 100 µM
TGI [7]: > 100 µM
TGI [8]: > 100 µM
TGI [9]: > 100 µM
TGI [10]: > 100 µM
TGI [11]: > 100 µM
TGI [12]: > 100 µM
TGI [13]: > 100 µM
TGI [14]: > 100 µM
TGI [15]: > 100 µM
TGI [16]: > 100 µM
TGI [50]: > 100 µM
TGI [18]: > 100 µM
TGI [19]: > 100 µM
TGI [20]: > 100 µM
TGI [51]: > 100 µM
TGI [52]: > 100 µM
TGI [22]: > 100 µM
TGI [23]: > 100 µM
TGI [24]: > 100 µM
TGI [25]: > 100 µM
TGI [26]: > 100 µM
TGI [27]: > 100 µM
TGI [28]: > 100 µM
TGI [29]: > 100 µM
TGI [30]: > 100 µM
TGI [31]: > 100 µM
TGI [53]: > 100 µM
TGI [54]: > 100 µM
TGI [32]: > 100 µM
TGI [55]: > 100 µM
TGI [56]: > 100 µM
TGI [33]: > 100 µM
TGI [34]: > 100 µM
TGI [35]: > 100 µM
TGI [36]: > 100 µM
TGI [37]: > 100 µM
TGI [38]: > 100 µM
TGI [57]: > 100 µM
TGI [40]: > 100 µM
TGI [41]: > 100 µM
TGI [42]: > 100 µM
TGI [43]: > 100 µM
TGI [44]: > 100 µM
TGI [45]: > 100 µM
